According to PubChem BioAssay (NCI):
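Method: 48-hour compound exposure of cells in 96-well plates, five concentrations, linear interpolation of endpoints. Definition used: TGI = concentration required for complete inhibition of growth.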

Key:
Assay in all cases: growth of human tumour cells (NCI), 48 h
OVCAR-3 ovarian = test system: OVCAR-3 ovarian
U251 CNS = test system: U251 CNS
MALME-3M melanoma = test system: MALME-3M melanoma
SF-295 CNS = test system: SF-295 CNS
RXF 393 renal = test system: RXF 393 renal
SK-MEL-2 melanoma = test system: SK-MEL-2 melanoma
OVCAR-5 ovarian = test system: OVCAR-5 ovarian
SNB-19 CNS = test system: SNB-19 CNS
NCI-H226 lung = test system: NCI-H226 lung
MOLT-4 leukemia = test system: MOLT-4 leukemia
SR leukemia = test system: SR leukemia
SN12C renal = test system: SN12C renal
MDA-MB-231 breast = test system: MDA-MB-231 breast
OVCAR-4 ovarian = test system: OVCAR-4 ovarian
786-0 renal = test system: 786-0 renal
M14 melanoma = test system: M14 melanoma
SNB-75 CNS = test system: SNB-75 CNS
TK-10 renal = test system: TK-10 renal
BT-549 breast = test system: BT-549 breast
HOP-92 NSCLC = test system: HOP-92 NSCLC
NCI-H460 lung = test system: NCI-H460 lung
ACHN renal = test system: ACHN renal
NCI/ADR-RES ovarian = test system: NCI/ADR-RES ovarian
NCI-H23 lung = test system: NCI-H23 lung
HCC-2998 colon = test system: HCC-2998 colon
NCI-H522 lung = test system: NCI-H522 lung
MDA-N = test system: MDA-N
UACC-257 melanoma = test system: UACC-257 melanoma
EKVX NSCLC = test system: EKVX NSCLC
CAKI-1 renal = test system: CAKI-1 renal
MDA-MB-435 = test system: MDA-MB-435
SK-MEL-28 melanoma = test system: SK-MEL-28 melanoma
HCT-15 colon = test system: HCT-15 colon
LOX IMVI melanoma = test system: LOX IMVI melanoma
SK-OV-3 ovarian = test system: SK-OV-3 ovarian
COLO 205 colon = test system: COLO 205 colon
RPMI-8226 leukemia = test system: RPMI-8226 leukemia
DU-145 prostate = test system: DU-145 prostate
SW-620 colon = test system: SW-620 colon
PC-3 prostate = test system: PC-3 prostate
IGROV1 ovarian = test system: IGROV1 ovarian
A549 NSCLC = test system: A549 NSCLC
HOP-62 NSCLC = test system: HOP-62 NSCLC
SK-MEL-5 melanoma = test system: SK-MEL-5 melanoma
KM12 colon = test system: KM12 colon
SF-539 CNS = test system: SF-539 CNS
K-562 leukemia = test system: K-562 leukemia
UACC-62 melanoma = test system: UACC-62 melanoma
HS 578T breast = test system: HS 578T breast
SF-268 CNS = test system: SF-268 CNS
UO-31 renal = test system: UO-31 renal
HT29 colon = test system: HT29 colon
CCRF-CEM leukemia = test system: CCRF-CEM leukemia
A498 renal = test system: A498 renal
HL-60(TB) leukemia = test system: HL-60(TB) leukemia
T-47D breast = test system: T-47D breast
OVCAR-8 ovarian = test system: OVCAR-8 ovarian
MCF7 breast = test system: MCF7 breast
HCT-116 colon = test system: HCT-116 colon

Measured: TGI

Cc1cn(C2OC(CO)C(O)C2O)c(=O)[nH]c1=O (centres undefined)
> 1000 µM: OVCAR-3 ovarian | U251 CNS | MALME-3M melanoma | SF-295 CNS | RXF 393 renal | SK-MEL-2 melanoma | OVCAR-5 ovarian | SNB-19 CNS | NCI-H226 lung | MOLT-4 leukemia | SR leukemia | SN12C renal | MDA-MB-231 breast | OVCAR-4 ovarian | 786-0 renal | M14 melanoma | SNB-75 CNS | TK-10 renal | BT-549 breast | HOP-92 NSCLC | NCI-H460 lung | ACHN renal | NCI/ADR-RES ovarian | NCI-H23 lung | HCC-2998 colon | NCI-H522 lung | MDA-N | UACC-257 melanoma | EKVX NSCLC | CAKI-1 renal | MDA-MB-435 | SK-MEL-28 melanoma | HCT-15 colon | LOX IMVI melanoma | SK-OV-3 ovarian | COLO 205 colon | RPMI-8226 leukemia | DU-145 prostate | SW-620 colon | PC-3 prostate | IGROV1 ovarian | A549 NSCLC | HOP-62 NSCLC | SK-MEL-5 melanoma | KM12 colon | SF-539 CNS | K-562 leukemia | UACC-62 melanoma | HS 578T breast | SF-268 CNS | UO-31 renal | HT29 colon | CCRF-CEM leukemia | A498 renal | HL-60(TB) leukemia | T-47D breast | OVCAR-8 ovarian | MCF7 breast | HCT-116 colon
